{"source": "the supplement of paper PMC10307832", "assay_in_all_cases": "relative viability (nuclei count vs DMSO), 5 days (fraction); higher = more cells survive", "key": {"RU-SKI 43 + Trametinib": {"compound": "CC[C@@H](C)CNCC(=O)N1CCC2=C([C@@H]1COC3=CC=CC(=C3)C)C=CS2 [RU-SKI 43] + CC(=O)Nc1cccc(-n2c(=O)n(C3CC3)c(=O)c3c(Nc4ccc(I)cc4F)n(C)c(=O)c(C)c32)c1 [Trametinib] (partner 0.02 µM)", "summary_of_the_method": "(§1)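 Lung cancer cell lines in 1536-well plates were dosed by pin tool the day after seeding, either with one drug alone or with a fixed anchor-drug dose plus five library-drug doses (not always all listed) in √10 steps. After 5 days, cells were fixed and their nuclei stained in one step (final 0.05% Triton X-100, 1% formaldehyde, 1 ug/ml Hoechst), then counted on 4× images. Relative viability is the nuclei count in treated wells divided by that in vehicle wells. Values are medians of duplicate plates.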"}, "MK-8033 + Decitabine": {"compound": "Cn1cc(-c2cnc3ccc4ccc(CS(=O)(=O)NCc5ccccn5)cc4c(=O)c3c2)cn1 [MK-8033] + Nc1ncn([C@H]2C[C@H](O)[C@@H](CO)O2)c(=O)n1 [Decitabine] (partner 2 µM)", "summary_of_the_method": "as §1"}, "RU-SKI 43 + Alpelisib": {"compound": "CC[C@@H](C)CNCC(=O)N1CCC2=C([C@@H]1COC3=CC=CC(=C3)C)C=CS2 [RU-SKI 43] + Cc1nc(NC(=O)N2CCC[C@H]2C(N)=O)sc1-c1ccnc(C(C)(C)C(F)(F)F)c1 [Alpelisib] (partner 2 µM)", "summary_of_the_method": "as §1"}, "RU-SKI 43 + Pemetrexed": {"compound": "CC[C@@H](C)CNCC(=O)N1CCC2=C([C@@H]1COC3=CC=CC(=C3)C)C=CS2 [RU-SKI 43] + Nc1nc2[nH]cc(CCc3ccc(C(=O)N[C@@H](CCC(=O)O)C(=O)O)cc3)c2c(=O)[nH]1 [Pemetrexed] (partner 0.2 µM)", "summary_of_the_method": "as §1"}}, "data": [{"cell line": "UMC-11", "values": [{"measurement": "relative viability", "setting": "RU-SKI 43 + Trametinib; first compound 0.1 µM", "value": 0.691}, {"measurement": "relative viability", "setting": "RU-SKI 43 + Trametinib; first compound 0.3162 µM", "value": 0.693}, {"measurement": "relative viability", "setting": "RU-SKI 43 + Trametinib; first compound 1 µM", "value": 0.742}, {"measurement": "relative viability", "setting": "RU-SKI 43 + Trametinib; first compound 3.162 µM", "value": 0.745}, {"measurement": "relative viability", "setting": "RU-SKI 43 + Trametinib; first compound 10 µM", "value": 0.401}, {"measurement": "relative viability", "setting": "MK-8033 + Decitabine; first compound 0.02 µM", "value": 0.593}, {"measurement": "relative viability", "setting": "MK-8033 + Decitabine; first compound 0.06325 µM", "value": 0.424}, {"measurement": "relative viability", "setting": "MK-8033 + Decitabine; first compound 0.2 µM", "value": 0.59}, {"measurement": "relative viability", "setting": "MK-8033 + Decitabine; first compound 0.6325 µM", "value": 0.714}, {"measurement": "relative viability", "setting": "MK-8033 + Decitabine; first compound 2 µM", "value": 0.612}, {"measurement": "relative viability", "setting": "RU-SKI 43 + Alpelisib; first compound 0.1 µM", "value": 1.06}, {"measurement": "relative viability", "setting": "RU-SKI 43 + Alpelisib; first compound 0.3162 µM", "value": 1.18}, {"measurement": "relative viability", "setting": "RU-SKI 43 + Alpelisib; first compound 1 µM", "value": 1.16}, {"measurement": "relative viability", "setting": "RU-SKI 43 + Alpelisib; first compound 3.162 µM", "value": 1.04}, {"measurement": "relative viability", "setting": "RU-SKI 43 + Alpelisib; first compound 10 µM", "value": 0.901}, {"measurement": "relative viability", "setting": "RU-SKI 43 + Pemetrexed; first compound 0.1 µM", "value": 0.871}, {"measurement": "relative viability", "setting": "RU-SKI 43 + Pemetrexed; first compound 0.3162 µM", "value": 0.951}, {"measurement": "relative viability", "setting": "RU-SKI 43 + Pemetrexed; first compound 1 µM", "value": 0.91}, {"measurement": "relative viability", "setting": "RU-SKI 43 + Pemetrexed; first compound 3.162 µM", "value": 0.824}, {"measurement": "relative viability", "setting": "RU-SKI 43 + Pemetrexed; first compound 10 µM", "value": 0.837}]}]}
